Results reported in the supplement of paper PMC13380429.

Assays:
Details in all cases: 72 h
Calu-3 [1] = assay: drug sensitivity score (DSS) for viability; higher = more toxic; extreme values may be limits of the assay
HepG2 [2] = assay: as above
Vero E6 [3] = assay: as above
Caco-2 [4] = assay: as above
U2OS [5] = assay: as above
Calu-3 [6] = assay: cell viability relative to DMSO; higher = less toxic
HepG2 [7] = assay: as above
Vero E6 [8] = assay: as above
Caco-2 [9] = assay: as above
U2OS [10] = assay: as above
Calu-3 [11] = assay: relative viability EC50 (midpoint between 100% and the lowest measured viability); higher = less toxic
HepG2 [12] = assay: as above
Vero E6 [13] = assay: as above
Caco-2 [14] = assay: as above
U2OS [15] = assay: as above

Structure (SMILES)	drug sensitivity score (Calu-3 [1])	drug sensitivity score (HepG2 [2])	drug sensitivity score (Vero E6 [3])	drug sensitivity score (Caco-2 [4])	drug sensitivity score (U2OS [5])	cell viability (Calu-3 [6]; 1 nM) [%]	cell viability (Calu-3 [6]; 10 nM) [%]	cell viability (Calu-3 [6]; 100 nM) [%]	cell viability (Calu-3 [6]; 1000 nM) [%]	cell viability (Calu-3 [6]; 10000 nM) [%]	cell viability (HepG2 [7]; 1 nM) [%]	cell viability (HepG2 [7]; 10 nM) [%]	cell viability (HepG2 [7]; 100 nM) [%]	cell viability (HepG2 [7]; 1000 nM) [%]	cell viability (HepG2 [7]; 10000 nM) [%]	cell viability (Vero E6 [8]; 1 nM) [%]	cell viability (Vero E6 [8]; 10 nM) [%]	cell viability (Vero E6 [8]; 100 nM) [%]	cell viability (Vero E6 [8]; 1000 nM) [%]	cell viability (Vero E6 [8]; 10000 nM) [%]	cell viability (Caco-2 [9]; 1 nM) [%]	cell viability (Caco-2 [9]; 10 nM) [%]	cell viability (Caco-2 [9]; 100 nM) [%]	cell viability (Caco-2 [9]; 1000 nM) [%]	cell viability (Caco-2 [9]; 10000 nM) [%]	cell viability (U2OS [10]; 1 nM) [%]	cell viability (U2OS [10]; 10 nM) [%]	cell viability (U2OS [10]; 100 nM) [%]	cell viability (U2OS [10]; 1000 nM) [%]	cell viability (U2OS [10]; 10000 nM) [%]	relative viability EC50 (Calu-3 [11]) [µM]	relative viability EC50 (HepG2 [12]) [µM]	relative viability EC50 (Vero E6 [13]) [µM]	relative viability EC50 (Caco-2 [14]) [µM]	relative viability EC50 (U2OS [15]) [µM]
C[C@@]12CC[C@@H]3[C@@](CC[C@H]4[C@@]3(C)CCC[C@@]4(C)C(=O)O)(CC1=O)C2 [isosteviol]	0	0	0	0	0	103	105	112	110	94.5	94.4	91.4	100	99.5	107	97.8	99.6	98.5	97.5	106	87.5	99.9	89.2	95.2	109	101	101	96.8	96.5	98.1	> 10	> 10	> 10	> 10	> 10
NS(=O)(=O)c1cc(C(=O)O)cc(N2CCCC2)c1Oc1ccccc1 [piretanide]	0	0	0	0	0	90	98.7	90.5	94.8	101	101	99.7	85.1	105	110	98.5	100	93.3	101	105	90.2	97.4	106	104	110	95.5	96.7	101	98.4	103	> 10	> 10	> 10	> 10	> 10
O=C(Nc1ccc(Cl)cc1)Nc1cccc(-c2cccc(N3CCCC3)n2)c1 [PSNCBAM-1]	0	0	0	0	0	102	98.9	95	97.9	104	101	110	102	102	99.1	108	96.7	102	105	91.8	98.3	91.9	96.2	93.7	99.4	98.8	102	96.6	98.7	102	> 10	> 10	> 10	> 10	> 10
Cn1cnc(N)c2ncnc1-2 [3-methyladenine]	0	0	0	0	0	104	101	95.2	106	106	103	102	89.6	101	90.5	95.1	103	102	96.6	96.5	99.3	94.8	108	102	100	103	97.1	98.3	97.9	99.8	> 10	> 10	> 10	> 10	> 10
CC1(C)S[C@@H]2[C@H](NC(=O)[C@H](NC(=O)N3CCN(S(C)(=O)=O)C3=O)c3ccccc3)C(=O)N2[C@H]1C(=O)O [mezlocillin]	0	0	0	1.1	0	93.8	88.9	93.1	100	94.1	99.6	94.2	91.1	98.6	104	99.6	107	99.5	100	100	100	102	87.8	89.4	96.3	96.4	97.9	92.7	103	94.8	> 10	> 10	> 10	> 10	> 10
CC(=N)NCc1cccc(CN)c1 [1400W]	0	0	0	0	0	102	93	91.2	108	109	102	100	105	94.4	97	103	98.3	99.9	102	97.7	112	92.6	103	92.2	103	103	94.6	104	98	104	> 10	> 10	> 10	> 10	> 10
O=C(O)COc1cccc(-c2ocnc2-c2nc(-c3ccccc3)c(-c3ccccc3)o2)c1	0	0	0	0.7	0	92.9	95.8	95	100	105	105	102	93.6	95	105	99	104	102	104	101	109	101	95.5	94.4	81.8	102	97.7	97.5	102	101	> 10	> 10	> 10	> 10	> 10
CC(C)(C)c1[nH]cnc1/C=c1\[nH]c(=O)/c(=C/c2ccccc2)[nH]c1=O [plinabulin]	17.3	19.7	23.9	13.1	21.3	102	87.9	56.8	40.7	36.6	108	97.1	50.1	25.5	30.9	106	101	32.7	11.7	11.4	107	89.1	68.6	53.5	37.6	101	94.9	45.3	22.3	20.6	0.0465	0.0668	0.0633	0.123	0.0591
CC(C)(CC(=O)N1CCCC1)NCC(=O)N1C[C@@H](F)C[C@H]1C#N [DBPR108]	0	0	0	0	0	107	97.5	100	98.9	95	96.2	102	94.6	104	105	99.6	99.9	104	92.2	102	91.1	93.5	86.4	95.6	95	97.9	98.1	99.1	100	92.9	> 10	> 10	> 10	> 10	> 10
Cc1cc2ncc(C(=O)NCC(C)(C)NCC(=O)N3CCC[C@H]3C#N)cn2n1 [anagliptin]	0	0	0	0	0	97.3	102	94.9	94.6	98.8	102	94.2	102	104	97.9	99.2	99.5	102	98.8	106	103	93.3	94.6	97.8	100	99.9	101	96.2	104	98.5	> 10	> 10	> 10	> 10	> 10
CN(C)C(=O)Oc1cc(OC(=O)N(C)C)cc(C(O)CNC(C)(C)C)c1 (stereo not given) [bambuterol]	0	0	0	0	0	95.8	98.6	99.2	89.4	117	96.1	97.2	99.1	96.9	95.6	99.8	97.9	93.1	90.3	101	97.7	94.5	89.6	103	104	96.4	93.5	95.5	101	104	> 10	> 10	> 10	> 10	> 10
CO/N=C(\C(=O)N[C@@H]1C(=O)N2C(C(=O)[O-])=C(C[N+]3(C)CCCC3)CS[C@H]12)c1csc(N)n1 [cefepime]	0	0	0	0	0	104	105	113	92.8	102	102	86	121	82.6	102	100	101	104	107	99.3	90.8	96.8	106	102	122	99.2	101	96.6	102	99.4	> 10	> 10	> 10	> 10	> 10
Fc1ccc(C(c2ccc(F)cc2)N2CCN(C/C=C/c3ccccc3)CC2)cc1 [flunarizine]	0	0.8	0	0.3	0.1	95.8	98.9	96.5	95.8	87.4	106	102	106	96.3	82.8	104	103	107	102	92.3	99.8	102	104	103	81.6	96.1	101	97.7	98.4	88.8	> 10	> 10	> 10	> 10	> 10
Clc1ccc(C(Cn2ccnc2)OCc2csc3c(Cl)cccc23)c(Cl)c1 (stereo not given) [sertaconazole]	0	0	0	0.1	0	106	96.1	106	95.1	96.1	116	96.8	102	105	100	102	102	105	105	99.5	97	101	95	95.6	85.4	94.1	95.4	98.9	91.4	88.6	> 10	> 10	> 10	> 10	> 10
